The results in this text go back to a melting point compilation (Tetko et al.; mined from patent text by program, amines drawn as free bases though some values may be those of a salt).

In turn, `C=CCOC(=O)C1=C(C)NC(C)=C(C(=O)OCC=C)C1c1ccccc1Cl` had a melting point of 98 to 99 °C.

`COc1ccc2c(c1)C(CCNC(=O)C(F)(F)F)C(c1ccccc1)C2` (stereo not drawn) had a melting point of 109 to 111 °C.

For the compound `CC(=O)SCCCn1cc(C2=C(c3cn(C)c4ccccc34)C(=O)NC2=O)c2ccccc21`, the melting point lay within 210 to 213 °C.

Turning to `CCCCc1ncc(C(=O)O)s1`, the melting point was 97 °C.

`O=c1[nH]c(=O)n(C2CC2)c2nc(S(=O)(O)=S)c(F)cc12` gave a melting point of 300 to 302 °C.

In turn, `CCOC(=O)c1nn(-c2ccccc2)c2c1CSc1ccccc1-2` came in with a melting point of 139 to 141 °C.

Regarding `OC(c1ccc(F)cc1)(c1ncc[nH]1)c1ccc(Cl)cc1Cl` (stereo not drawn), the melting point stood at 194 °C.

In turn, `CC(=O)NC(CC(=O)c1cc(Cl)ccc1N)C(=O)NC(CO)c1ccccc1` (stereo not drawn) came in with a melting point of 212 to 215 °C.

With `CNc1ccc(C#CCCN2CC=C(c3ccccc3)CC2)nc1`, the melting point lay in the range of 164 to 166 °C.

`CCN(CC)C(=O)NC1CC2c3cccc4[nH]cc(c34)CC2N(C)C1` (stereo not drawn) displayed a melting point of 171 to 173 °C.

The compound `COc1ccccc1COc1ccc2c(c1)C=C(C(=O)O)CCS2(=O)=O` displayed a melting point of 168 to 171 °C.

Compound `O=C1Nc2cc(Cl)ccc2N[C@H]1Cc1ccccc1` had a melting point of 185 °C.

For the compound `CCNc1c(C(F)(F)F)cc([N+](=O)[O-])c(NN(C)C)c1[N+](=O)[O-]`, the melting point lay within 108 to 116 °C.

On to `CC1COc2c(N3CCC(NC(=O)OC(C)(C)C)C3)c(F)cc3c(=O)n(N)c(=O)n1c23` (stereo not drawn), for which the melting point is 114 to 116 °C.

As to `CC(C)(C)N1CCN(c2cc3c(cc2F)c(=O)c(C(=O)O)cn3C(C)(C)C)CC1`, the melting point is over 270 °C.

As for `CCn1c(N)c(-c2nccn2COCC[Si](C)(C)C)c(=O)c2ccc(-c3ccc(CC(=O)O)cc3)nc21`, the melting point is 220 °C.

As to `CCCC(=O)c1ccc(-c2ncccc2S(=O)(=O)Nc2ncc(C)nc2OC)cc1`, the melting point was in the range of 130 to 131 °C.

`O=C(Cc1ccccc1)N1CCN(c2ccc(Cl)cc2)CC1` returned a melting point of 93 to 94 °C.

In turn, `COc1ccc(Cc2cnc(NCCSCc3csc(CN(C)C)n3)[nH]c2=O)cn1` came in with a melting point of 137 to 138 °C.

For the compound `CNCC1Cc2cc(-c3ccccc3)cc(-c3ccc(F)cc3)c2O1` (stereo not drawn), the melting point was over 250 °C.

For the compound `CCOC(=O)c1cn(NC=O)c2nc(C)ccc2c1=O`, the melting point came to 214 °C.

For the compound `CN(C)CC(C(O)c1ccc(N)cc1)N1CCC(Cc2ccccc2)CC1` (stereo not drawn), the melting point lay in the range of 121 to 125 °C.

In the case of `CCOP(=O)(OCC)C1Cc2cc(C(F)(F)F)cc3[nH]c(=O)c(=O)n(c23)C1` (stereo not drawn), the melting point was determined as 253 °C.

The compound `Nc1ccccc1NC(=O)Nc1ccc(-c2ccc(C(=O)N3CCN4CCC3CC4)o2)cc1` showed a melting point of 174 °C.

`CCCCCCC(C(=O)OCC)c1ccc(NC(=O)C2c3ccccc3-c3ccccc32)cc1` (stereo not drawn) showed a melting point of 174 to 175 °C.

Consider `O=C(CN1CCN(c2ccccc2F)CC1)Nc1ccc2c(c1NC(=O)c1ccccc1)C(=O)c1ccccc1C2=O`, for which the melting point is 228 to 229 °C.

Take `CC(C)(C)OC(=O)NCCn1cc(C#N)c(-c2cccc(F)c2)c1Cl`: the melting point was 97 to 99 °C.

Turning to `O=C1COCc2cc(Br)ccc21`, the melting point was 144 to 146 °C.

In turn, `c1ccc2c(c1)nc1n2CCCO1` showed a melting point of 116 to 118 °C.

The compound `N#CCc1cccc2c(C3CCCC3)nccc12` gave a melting point of 99.4 to 100 °C.

On to `CCSC(N)=C(C#N)C#N`, for which the melting point was 180 to 182 °C.

`COc1ccc(CN2C(=O)C(Oc3ccccc3)C2c2ccc(C(=O)O)cc2)cc1OC` (stereo not drawn) displayed a melting point of 160 to 161 °C.

As to `CCS(=O)(=O)Nc1cc(-c2ncnc(C(F)F)c2Cl)c(Cl)cc1Cl`, the melting point was 140 to 142 °C.

For `c1ccnc2ccccc2c2ccccc2cc1`, the melting point fell in the range of 165 to 167 °C.

Compound `CCOC(=O)c1c(C(F)(F)F)nc(C(F)(F)F)c(C)c1OC(C)=O` displayed a melting point of 49 to 51 °C.

Consider `Clc1ccc2oc(SCCN3CCC(OC(c4ccccc4)c4ccccc4)CC3)nc2c1`, for which the melting point was 98 to 101 °C.

In turn, `COc1ccc(CCN)cc1OCCC(c1ccccc1)(c1ccccc1)c1ccccc1` displayed a melting point of 111 to 112 °C.

As for `COC(=O)COc1cc2c(c(Cl)c1C)C(=O)C1(CCCC1)C2=O`, the melting point is 152 to 154 °C.

`CCOC(=O)c1c(C(F)(F)F)nc(C)c(-c2ccccc2)c1O`: the melting point is 82 to 84 °C.

`O=C(Nc1cccc(Oc2ccc(Cl)cc2)c1)c1ccn2c1CSC2c1cccnc1` (stereo not drawn) had a melting point of 140 °C.

Regarding `COc1cc2c(cn1)OCC21C(=O)N(CC2CCCO2)c2ccccc21` (stereo not drawn), the melting point is over 250 °C.

In turn, `NC1=Nc2ccc(OC(F)(F)F)cc2SC1` yielded a melting point of 94 to 96 °C.

On to `COC(=O)C(c1cccc(Br)c1)c1ncnc2cc(OC)c(OC)cc12` (stereo not drawn), for which the melting point is 167 to 168 °C.

Regarding `CCn1ncc2c1ncc1c(Cl)nc3cc(C)nn3c12`, the melting point was in the range of 179 to 180 °C.

Consider `O=c1[nH]c2ccc(S(=O)CCN3CCC(O)(Cc4ccc(F)cc4)CC3)cc2o1` (stereo not drawn), for which the melting point is 153 to 155 °C.

The compound `CCOc1cc(C(F)(F)F)sc1C(=O)OC` returned a melting point of 93.6 °C.

As to `CCCCCCCCCCCCCCCCCC(=O)N[C@@H](C)C(=O)OC`, the melting point was 84 °C.

In turn, `N#Cc1ccc(SC2SCC(O)C(O)C2O)cc1` (stereo not drawn) yielded a melting point of 175 °C.

`O=C(O)c1ccc(NCC=C(c2ccc(Cl)cc2)c2ccc(Cl)cc2)cc1` returned a melting point of 231 to 235 °C.

In the case of `Cc1nc2c(OCc3cc(N(C)S(C)(=O)=O)ccc3Cl)cccn2c1Br`, the melting point was 158 to 162 °C.

`Cc1cccc(C)c1OC(=O)[C@H](C)[C@@H](O)C(C)C` yielded a melting point of 58.5 to 59.5 °C.

Compound `Nc1nnc(-c2ccc3ncn(-c4cccc(OC(F)(F)F)c4)c3c2)o1` yielded a melting point of 215 to 216 °C.

The compound `CC(C)NCC(O)COc1ccc2c(c1)OC(C)CC2` (stereo not drawn) displayed a melting point of 79 to 81 °C.

In turn, `CCOC(=O)Cc1ccc(OCCN2CCN(c3cc(Cl)nnc3Cl)CC2)cc1` registered a melting point of 128 to 130 °C.

In the case of `Cc1ccc(-c2coc(-c3ccc4c(c3)C(C)(C)CCC4(C)C)c2)cc1`, the melting point was in the range of 155 to 157 °C.

Turning to `Clc1ccccc1NC(c1ccccc1)c1ccccc1`, the melting point was found to be 98 °C.

In turn, `CC1(c2cc(-c3nc4ccc(OCc5ccccc5)cc4[nH]3)ccc2OCc2ccccc2)CCCCC1` registered a melting point of 209 °C.

Compound `CCCc1nc2c(N)nc3ccccc3c2n1CC1(O)CCOCC1` displayed a melting point of 231 to 233 °C.

For `CC(C)c1ccc(C(=O)O)c(C2=NC(=O)C(C)(C(C)C)N2)n1` (stereo not drawn), the melting point is 131 to 134 °C.

For the compound `CCC(=O)C(CCCOc1ccc(OCCCC(C(=O)CC)C(=O)CC)cc1)C(=O)CC`, the melting point fell in the range of 57 to 58 °C.

With `O=C(O)CCc1cccc(OCc2cn(-c3ccc(C(F)(F)F)cn3)nc2C2CCCCC2)c1`, the melting point lay in the range of 94 to 95 °C.

`CC1(C)COc2cc3c(cc21)C1(CO3)C(=O)N(C(c2ccccc2)c2ccccc2)c2ccccc21` (stereo not drawn) displayed a melting point of 190 to 192 °C.

Compound `Cc1cc(Cn2cc(C3c4ccccc4C=Cc4ccccc43)c(=S)[nH]c2=O)cc(C(=O)O)c1` gave a melting point of over 240 °C.

The compound `CCOC(=O)Nc1ccc(Cl)nc1` gave a melting point of 110 °C.

On to `CCOC(=O)n1c(=O)[nH]c2cc(OC)ccc21`, for which the melting point lay within 180 to 183 °C.

For `COc1cc(OCCn2cccc2)ccc1/C=C/c1cc(/C=C/c2ccc3cc[nH]c3c2)n[nH]1`, the melting point fell in the range of 102 to 110 °C.

`CCCCCCNc1ncnc2c1ncn2C1CC(F)C(CO)O1` (stereo not drawn) showed a melting point of 83 °C.

The compound `COc1ccc(Cn2c(C)cc3cnnc(OCc4ccccc4)c32)cc1` had a melting point of 152 to 156 °C.

Compound `COC(=O)C(=O)CC(=O)c1ccccn1` displayed a melting point of 86 to 87 °C.

In turn, `CCOC(=O)Cc1c(C)nc2c3cccc(Cl)c3ccn12` registered a melting point of 137 to 138 °C.

`CC(=O)NC1CCN(c2nc(Nc3ccc(F)cc3F)c(C(=O)O)cc2F)C1` (stereo not drawn) showed a melting point of 232 to 234 °C.

As for `O=S(=O)(N=C(O)c1ccc(OCCn2ccnc2)cc1)c1ccccc1`, the melting point is 250 to 252 °C.

Compound `COc1cc2c(cc1-c1cccnc1)-c1c(-c3cccs3)c3c(n1CC2)C(=O)N(C(C)C)CCN(C(=O)OC(C)(C)C)C3` displayed a melting point of 207 to 208 °C.

As for `CCCNC(=O)C(C)=Cc1ccc2c(c1)c(Cc1ccc(C(=O)O)cc1OC)cn2C`, the melting point lay in the range of 89 to 95 °C.

As for `COC(C)=CC(=O)NC1CCCC1`, the melting point turned out to be 94 °C.

In turn, `CN1CCC(c2c[nH]c3cc(F)c(OS(=O)(=O)c4c(F)cccc4F)cc23)CC1` displayed a melting point of 202 °C.

Compound `Cc1cnc(C2=NC(C)(C(C)C)C(=O)N2)c(C(=O)C(=O)N(C)c2ccccc2)c1` (stereo not drawn) displayed a melting point of 153 to 156 °C.

In turn, `CCCCC1=NC2(CCCC2)C(=O)N1Cc1ccc(-c2ccccc2S(=O)(=O)Nc2onc(C)c2C)c(CN2CCCC2=O)c1` came in with a melting point of 95 to 100 °C.

Consider `Cc1ccc(-n2nc3c4cc(CCc5ccccc5)ccc4[nH]c(=O)n3c2=O)cc1`, for which the melting point was determined as 303 °C.

In turn, `CC(=O)c1cc2c(s1)C(C)(C)CCC2(C)C` yielded a melting point of 53 to 55 °C.

Compound `COC(=O)c1c(C)cn2cc(OCc3ccccc3)ccc12` registered a melting point of 143 °C.

`C#CC1(O)CCN(C(C)=O)CC1` showed a melting point of 132 to 134 °C.

Turning to `CC(=O)OCc1cc(C(C)=O)ccc1OC(C)=O`, the melting point lay in the range of 47 to 48 °C.

Compound `CCOC(=O)C1(CCCC(=O)OC(C)(C)C)CCn2c(cc3ccccc32)C1=O` (stereo not drawn) returned a melting point of 104 °C.

As for `COc1cc2cc(C(=O)Nc3cc(NC(=O)OCc4ccccc4)c4ccccc4c3CCCl)[nH]c2c(OC)c1OC`, the melting point is 58 to 62 °C.

As to `O=C(O)CCC/C=C\CN1C(=O)c2ccccc2C1=O`, the melting point was 86 to 88 °C.

In the case of `N#Cc1cnn(-c2ccc(Cl)c(Cl)c2Cl)c1NC=O`, the melting point lay within 190 to 192 °C.

As for `Cc1cc(CCC(=O)OC(C)(C)C)nc(-c2nc(=O)c3ccccc3s2)c1`, the melting point is 168 to 169 °C.

The term melting point denotes the temperature, or range, at which the solid turns liquid.
